Earlier results in patent US20090012008A1, “Pharmaceutical Composition for Photodynamic Therapy and a Method for Treating Oncological Diseases by Using Said Composition” (priority 2005, published 2009).

Experiments:
[1] = test system: tumor cells of the HeLa S3 line; details: HeLa S3, in vitro

Compound	effect on viability and proliferation rate (keratinocytes)	effect on viability and proliferation rate (fibroblasts)	cytotoxic activity [1]
c12c3c4c5c1c1c6c7c2c2c8c3c3c9c4c4c%10c5c5c1c1c6c6c%11c7c2c2c7c8c3c3c8c9c4c4c9c%10c5c5c1c1c6c6c%11c2c2c7c3c3c8c4c4c9c5c1c1c6c2c3c41 [fullerene C60]	no effect	no effect	
fullerocyclopentane			manifest only upon irradiation with light
